Target: T1, GCS (Canis lupus familiaris, UniProt A0A8I3MXG6)
T1 sequence (A0A8I3MXG6 1-394): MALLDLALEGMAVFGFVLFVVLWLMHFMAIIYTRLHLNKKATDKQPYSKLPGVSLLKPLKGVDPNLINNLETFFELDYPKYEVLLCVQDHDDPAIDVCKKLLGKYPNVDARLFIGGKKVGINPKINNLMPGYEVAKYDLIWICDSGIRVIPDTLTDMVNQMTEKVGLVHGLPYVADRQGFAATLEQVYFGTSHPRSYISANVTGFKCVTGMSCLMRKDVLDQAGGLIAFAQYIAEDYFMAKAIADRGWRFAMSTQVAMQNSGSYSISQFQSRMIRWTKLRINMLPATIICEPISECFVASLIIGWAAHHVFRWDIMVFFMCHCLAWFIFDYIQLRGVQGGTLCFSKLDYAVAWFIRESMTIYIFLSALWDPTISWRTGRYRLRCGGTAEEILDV
Experiment: Assay 1: GCS Enzymatic Assay (MDCK cell lysate, C6-NBD-Ceramide, LC/MS)
Type: biochemical, canine
Conditions: Table 2; for % inhibition generated from Assay 1: data marked by *; for IC50: data without asterisk, read-out: IC50 (nM) generated from Assay 1
Outline: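 LC/MS/MS measurement of glucosylceramide and NBD-ceramide after a 1 h, 37 °C reaction with 100 μM UDP-glucose and 10 μM C6-NBD-ceramide gave IC50s or percent inhibition.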

| Compound | % inhibition generated from Assay 1 | IC50 [nM] |
| --- | --- | --- |
| O=C(N[C@H](CN1CCCC1)[C@H](O)c1ccc2c(c1)OCCO2)C(F)(F)c1cccc(Oc2ccc(F)cc2)c1 [Compound 201, N-((1R,2R)-1-(2,3-dihydrobenzo[b][1,4]dioxin-6-yl)-1-hydroxy-3-(pyrrolidin-1-yl)propan-2-yl)-2,2-difluoro-2-(3-(4-fluorophenoxy)phenyl)acetamide] | A* (the compound had a % inhibition of a percent inhibition of greater than or equal to about 50%) |  |
| Cn1ncc2cc(-c3ccc(C(F)(F)C(=O)N[C@H](CN4CCCC4)[C@H](O)c4ccc(OC5CC5)c(Cl)c4)cc3)ccc21 [Compound 202, N-((1R,2R)-1-(3-chloro-4-cyclopropoxyphenyl)-1-hydroxy-3-(pyrrolidin-1-yl)propan-2-yl)-2,2-difluoro-2-(4-(1-methyl-1H-indazol-5-yl)phenyl)acetamide] |  | < 50 |
| O=C(N[C@H](CN1CCCC1)[C@H](O)c1cc(F)c2c(c1)OCCO2)C(=O)c1cccc(Oc2ccc(F)cc2)c1 [Compound 203, N-((1R,2R)-1-(8-fluoro-2,3-dihydrobenzo[b][1,4]dioxin-6-yl)-1-hydroxy-3-(pyrrolidin-1-yl)propan-2-yl)-2-(3-(4-fluorophenoxy)phenyl)-2-oxoacetamide] |  | < 50 |
| O=C(N[C@H](CN1CCCC1)[C@H](O)c1ccc(OC2CC2)c(F)c1)C(F)(F)c1ccc(-c2ccc(F)cc2)cc1 [Compound 204, N-((1R,2R)-1-(4-cyclopropoxy-3-fluorophenyl)-1-hydroxy-3-(pyrrolidin-1-yl)propan-2-yl)-2,2-difluoro-2-(4′-fluoro-[1,1′-biphenyl]-4-yl)acetamide] |  | < 50 |
| Cn1ncc2cc(-c3ccc(C(=O)C(=O)N[C@H](CN4CCCC4)[C@H](O)c4ccc(OC5CC5)c(Cl)c4)cc3)ccc21 [Compound 205, N-((1R,2R)-1-(3-chloro-4-cyclopropoxyphenyl)-1-hydroxy-3-(pyrrolidin-1-yl)propan-2-yl)-2-(4-(1-methyl-1H-indazol-5-yl)phenyl)-2-oxoacetamide] |  | < 50 |
| O=C(N[C@H](CN1CCCC1)[C@H](O)c1ccc(OC2CC2)c(Cl)c1)C(F)(F)c1cccc(Oc2ccc(F)cc2)c1 [Compound 206, N-((1R,2R)-1-(3-chloro-4-cyclopropoxyphenyl)-1-hydroxy-3-(pyrrolidin-1-yl)propan-2-yl)-2,2-difluoro-2-(3-(4-fluorophenoxy)phenyl)acetamide] | A* (the compound had a % inhibition of a percent inhibition of greater than or equal to about 50%) |  |
| Cn1ncc2cc(-c3ccc(C(=O)C(=O)N[C@H](CN4CCCC4)[C@H](O)c4ccc5c(c4)OCCO5)cc3)ccc21 [Compound 207, N-((1R,2R)-1-(2,3-dihydrobenzo[b][1,4]dioxin-6-yl)-1-hydroxy-3-(pyrrolidin-1-yl)propan-2-yl)-2-(4-(1-methyl-1H-indazol-5-yl)phenyl)-2-oxoacetamide] |  | < 50 |
| O=C(N[C@H](CN1CCCC1)[C@H](O)c1ccc(OC2CC2)c(F)c1)C(=O)c1ccc(-c2ccc(F)cc2)cc1 [Compound 208, N-((1R,2R)-1-(4-cyclopropoxy-3-fluorophenyl)-1-hydroxy-3-(pyrrolidin-1-yl)propan-2-yl)-2-(4′-fluoro-[1,1′-biphenyl]-4-yl)-2-oxoacetamide] |  | < 50 |
| O=C(N[C@H](CN1CCCC1)[C@H](O)c1ccc(OC2CC2)c(Cl)c1)C(=O)c1ccc2ccccc2c1 [Compound 209, N-((1R,2R)-1-(3-chloro-4-cyclopropoxyphenyl)-1-hydroxy-3-(pyrrolidin-1-yl)propan-2-yl)-2-(naphthalen-2-yl)-2-oxoacetamide] |  | < 50 |
| O=C(N[C@H](CN1CCCC1)[C@H](O)c1cc(F)c2c(c1)OCCO2)C(F)(F)c1cccc(Oc2ccc(F)cc2)c1 [Compound 210, 2,2-difluoro-N-((1R,2R)-1-(8-fluoro-2,3-dihydrobenzo[b][1,4]dioxin-6-yl)-1-hydroxy-3-(pyrrolidin-1-yl)propan-2-yl)-2-(3-(4-fluorophenoxy)phenyl)acetamide] |  | < 50 |
| O=C(N[C@H](CN1CCCC1)[C@H](O)c1ccc2c(c1)OCCO2)C(F)(F)c1csc(-c2ccc(F)cc2)n1 [Compound 211, N-((1R,2R)-1-(2,3-dihydrobenzo[b][1,4]dioxin-6-yl)-1-hydroxy-3-(pyrrolidin-1-yl)propan-2-yl)-2,2-difluoro-2-(2-(4-fluorophenyl)thiazol-4-yl)acetamide] | B* (the compound had a % inhibition of greater than or equal to about 3% but less than about 50%) |  |
| Cn1ncc2cc(-c3ccc(C(F)(F)C(=O)N[C@H](CN4CCCC4)[C@H](O)c4ccc5c(c4)OCCO5)cc3)ccc21 [Compound 212, N-((1R,2R)-1-(2,3-dihydrobenzo[b][1,4]dioxin-6-yl)-1-hydroxy-3-(pyrrolidin-1-yl)propan-2-yl)-2,2-difluoro-2-(4-(1-methyl-1H-indazol-5-yl)phenyl)acetamide] |  | < 50 |
| O=C(N[C@H](CN1CCCC1)[C@H](O)c1ccc(OC2CC2)c(Cl)c1)C(F)(F)c1csc(-c2ccc(F)cc2)n1 [Compound 213, N-((1R,2R)-1-(3-chloro-4-cyclopropoxyphenyl)-1-hydroxy-3-(pyrrolidin-1-yl)propan-2-yl)-2,2-difluoro-2-(2-(4-fluorophenyl)thiazol-4-yl)acetamide] | B* (the compound had a % inhibition of greater than or equal to about 3% but less than about 50%) |  |
| O=C(N[C@H](CN1CCCC1)[C@H](O)c1ccc(OC2CC2)c(Cl)c1)C(=O)c1ccc(-c2ccccn2)cc1 [Compound 214, N-((1R,2R)-1-(3-chloro-4-cyclopropoxyphenyl)-1-hydroxy-3-(pyrrolidin-1-yl)propan-2-yl)-2-oxo-2-(4-(pyridin-2-yl)phenyl)acetamide] |  | < 50 |
| O=C(N[C@H](CN1CCCC1)[C@H](O)c1ccc(OC2CC2)c(Cl)c1)C(=O)c1cnc(-c2ccc(F)cc2)s1 [Compound 215, N-((1R,2R)-1-(3-chloro-4-cyclopropoxyphenyl)-1-hydroxy-3-(pyrrolidin-1-yl)propan-2-yl)-2-(2-(4-fluorophenyl)thiazol-5-yl)-2-oxoacetamide] | B* (the compound had a % inhibition of greater than or equal to about 3% but less than about 50%) |  |
| Cn1ncc2cc(C(=O)C(=O)N[C@H](CN3CCCC3)[C@H](O)c3ccc4c(c3)OCCO4)ccc21 [Compound 216, N-((1R,2R)-1-(2,3-dihydrobenzo[b][1,4]dioxin-6-yl)-1-hydroxy-3-(pyrrolidin-1-yl)propan-2-yl)-2-(1-methyl-1H-indazol-5-yl)-2-oxoacetamide] |  | < 50 |
| Cn1ncc2cc(C(=O)C(=O)N[C@H](CN3CCCC3)[C@H](O)c3cc(F)c4c(c3)OCCO4)ccc21 [Compound 217, N-((1R,2R)-1-(8-fluoro-2,3-dihydrobenzo[b][1,4]dioxin-6-yl)-1-hydroxy-3-(pyrrolidin-1-yl)propan-2-yl)-2-(1-methyl-1H-indazol-5-yl)-2-oxoacetamide] |  | < 50 |
| O=C(N[C@H](CN1CCCC1)[C@H](O)c1ccc(OC2CC2)c(Cl)c1)C(F)(F)c1ccc(-c2ccc(F)cc2)s1 [Compound 218, N-((1R,2R)-1-(3-chloro-4-cyclopropoxyphenyl)-1-hydroxy-3-(pyrrolidin-1-yl)propan-2-yl)-2,2-difluoro-2-(5-(4-fluorophenyl)thiophen-2-yl)acetamide] | B* (the compound had a % inhibition of greater than or equal to about 3% but less than about 50%) |  |

Source: US10227323B2, “Glucosylceramide synthase inhibitors for the treatment of diseases” (BIOMARIN PHARMACEUTICAL INC., priority 2013, dated 2019)
